Measurements published in paper PMC4207540 (Journal of Medicinal Chemistry, 2014).

Tests used:
WI-38 fibroblast cells = assay: Cytotoxicity assay; type: cell-based
BXD-4687 = type: cell-based, human
BXD-3752 = type: cell-based, human
IDH1(R132H) = IDH1(R132H) (Homo sapiens, UniProt O75874, R132H); settings: for fold less active than compound 2 against IDH1(R132H): relative to compound 2
WT IDH1 [1] = biological target: T1, WT IDH1 (Homo sapiens, UniProt O75874)
[2] = test system: breast cancer and leukemia cells; settings: cited from earlier work
HT1080 cells = assay: D2HG production inhibition in HT1080 cells; settings: Homo sapiens, HT-1080, 48 h, read-out: IC50 for inhibition of D2HG
WT IDH1 [3] = biological target: T1, WT IDH1; assay: biochemical

T1 sequence (O75874 whole entry): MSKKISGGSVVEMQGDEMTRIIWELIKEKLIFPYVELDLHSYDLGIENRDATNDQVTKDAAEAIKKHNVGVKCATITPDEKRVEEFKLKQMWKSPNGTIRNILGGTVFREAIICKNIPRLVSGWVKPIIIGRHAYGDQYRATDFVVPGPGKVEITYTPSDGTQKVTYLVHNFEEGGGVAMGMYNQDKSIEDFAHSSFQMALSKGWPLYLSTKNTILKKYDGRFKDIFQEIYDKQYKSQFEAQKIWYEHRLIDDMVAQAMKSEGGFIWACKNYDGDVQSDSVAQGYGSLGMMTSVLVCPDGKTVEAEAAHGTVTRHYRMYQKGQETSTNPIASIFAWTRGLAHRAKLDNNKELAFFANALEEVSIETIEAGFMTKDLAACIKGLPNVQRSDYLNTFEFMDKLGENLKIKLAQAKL
IDH1(R132H), sequence (O75874 whole entry R132H): as the sequence (O75874 whole entry) above, with R132H counted along it

Cc1ccccc1C(C(=O)NC1CCCCC1)N(C(=O)Cn1ccnc1C)c1cccc(F)c1 (stereo not drawn) [Compound 1]
activity against WI-38, in words (WI-38 fibroblast cells): no activity | activity against BXD-4687, in words (BXD-4687): no activity | activity against BXD-3752, in words (BXD-3752): no activity

Cc1cc(Cc2ccccc2)n(O)c(=O)c1 [Compound 2]
EC50 (WI-38 fibroblast cells; Homo sapiens, WI-38, 48 h, read-out: EC50 against WI-38): > 50 µM

O=c1ccc(-c2ccccc2)cn1O [Compound 5]
inhibitory activity against IDH1(R132H), in words (IDH1(R132H)): very weak activity

O=c1cccc(Cc2ccccc2)n1O [Compound 7]
inhibitory activity against WT IDH1, in words (WT IDH1 [1]): do not inhibit the enzyme

Cc1cc(C2CCCCC2)n(O)c(=O)c1 [Compound 9, Ciclopirox, reference compound]
antiproliferative activity [2]: low micromolar | inhibitory activity against IDH1(R132H), in words (IDH1(R132H)): inactive

O=c1ccc(CCc2ccccc2)cn1O [Compound 10]
inhibitory activity against IDH1(R132H), in words (IDH1(R132H)): lose the inhibitory activity

O=c1ccc(CCCc2ccccc2)cn1O [Compound 11]
inhibitory activity against IDH1(R132H), in words (IDH1(R132H)): lose the inhibitory activity

O=c1cccc(-c2ccccc2)n1O [Compound 15]
inhibitory activity against IDH1(R132H), in words (IDH1(R132H)): inactive

CC(c1ccccc1)c1cccc(=O)n1O (stereo not drawn) [Compound 16]
inhibitory activity against IDH1(R132H), in words (IDH1(R132H)): inactive

Cc1cc(COc2ccccc2)n(O)c(=O)c1 [Compound 19]
fold less active than compound 2 against IDH1(R132H) (IDH1(R132H)): ~4 fold

Cc1cc(C)n(O)c(=O)c1 [Compound 20]
inhibitory activity against IDH1(R132H), in words (IDH1(R132H)): inactive

O=c1ccc(Cc2ccccc2)c[nH]1 [Compound 21]
inhibitory activity against IDH1(R132H), in words (IDH1(R132H)): lack of activity

O=c1ccn(O)c(=O)n1Cc1ccccc1 [Compound 25]
inhibitory activity against IDH1(R132H), in words (IDH1(R132H)): lack of activity

O=c1n(O)ccn1Cc1ccccc1 [Compound 26]
inhibitory activity against IDH1(R132H), in words (IDH1(R132H)): lack of activity

Cc1cc(Cc2ccccc2)n(N)c(=O)c1 [Compound 27]
fold less active than compound 2 against IDH1(R132H) (IDH1(R132H)): 20 fold

Cc1cc(Cc2ccccc2)oc(=O)c1 [Compound 28]
inhibitory activity against IDH1(R132H), in words (IDH1(R132H)): inactive

Cc1cc(Cc2ccccc2)oc(=S)c1 [Compound 29]
inhibitory activity against IDH1(R132H), in words (IDH1(R132H)): inactive

Cc1ccn(O)c(=O)c1Cc1ccccc1 [Compound 30]
fold less active than compound 2 against IDH1(R132H) (IDH1(R132H)): 50 fold

CC(C)c1cc(Cc2ccccc2)n(O)c(=O)c1 [Compound 33]
IC50 (HT1080 cells): > 30 µM | inhibitory activity against WT IDH1, in words (WT IDH1 [1]): do not inhibit the enzyme

O=c1cc(O)cc(Cc2ccccc2)n1O [Compound 34]
Ki (WT IDH1 [3]): > 30 µM | IC50 (HT1080 cells): 9.7 ± 1.8 µM | inhibitory activity against WT IDH1, in words (WT IDH1 [1]): do not inhibit the enzyme

COc1cccc(Cc2cc(C)cc(=O)n2O)c1 [Compound 39]
inhibitory activity against WT IDH1, in words (WT IDH1 [1]): do not inhibit the enzyme

Cc1cc(Cc2cccc(O)c2)n(O)c(=O)c1 [Compound 40]
inhibitory activity against WT IDH1, in words (WT IDH1 [1]): do not inhibit the enzyme

COc1ccccc1Cc1cc(C)cc(=O)n1O [Compound 41]
fold less active than compound 2 against IDH1(R132H) (IDH1(R132H)): ~2 fold

Cc1cc(Cc2ccccc2O)n(O)c(=O)c1 [Compound 42]
fold less active than compound 2 against IDH1(R132H) (IDH1(R132H)): ~2 fold

Cc1cc(Cc2cccc(F)c2)n(O)c(=O)c1 [Compound 43]
fold less active than compound 2 against IDH1(R132H) (IDH1(R132H)): ~10 fold

Cc1cc(Cc2c(F)c(F)c(F)c(F)c2F)n(O)c(=O)c1 [Compound 44]
fold less active than compound 2 against IDH1(R132H) (IDH1(R132H)): ~10 fold

COc1ccc(-c2ccc(Cc3cc(C)cc(=O)n3O)cc2)cc1 [Compound 58]
selectivity for BT-142 over glioma cells without IDH1 mutation (BXD-4687, -3752) (BT-142 glioma cells): > 10 fold
